From US11413279B2, “Methods and compositions for the antiviral use of synthetic lysine analogs and mimetics” (priority 2017, dated 2022)
Several values for one entry are separate records, joined by “and”; a condition that tells them apart may be missing. Equal entries are not always repeated. Where two headings read alike, the source gives them in different places.

How the values were obtained:
[1] = tested on: Herpes Simplex Virus Type 1 (HSV-1); assay: Antiviral activity of tranexamic acid/L-arginine against HSV-1; format: cell-based; conditions: for Viral Promotion (%) / Output Viral Titer (Log10TCID50) / Titer (Log10TCID50/mL) / Viral Reduction (%): contact time 48 ± 8 hours; for Log10 Titer Difference: vs input virus control average 6.39
[2] = tested on: Herpes Simplex Virus Type 2 (HSV-2); assay: Antiviral activity of tranexamic acid/L-arginine against HSV-2; format: cell-based; conditions: contact time 48 ± 8 hours
[3] = tested on: Herpes Simplex Virus Type 1 (HSV-1); format: cell-based
Experimental: (§1) Contact time for each sample was 48±2 hours and Log10 titer reductions were generated using the input viral titer (Log10TCID50) and the output viral titer (Log10TCID50).
The plate was incubated for 48±2 hours at 36±2° C. with 5±3% CO2. The plate was then frozen at −60 to −90° C., thawed, and the contents of each well centrifuged at 2,000 RPM for 10 minutes. The supernatant from each well was collected and assayed for infectious virus.
as §1

[4] = tested on: cell medium used for HSV-1 and HSV-2; assay: Cytotoxicity limit in the cell medium used for HSV-1 and HSV-2
[5] = tested on: Herpes Simplex Virus Type 2 (HSV-2); conditions: contact time 48 ± 8 hours
[6] = tested on: recurrent outbreaks of cold sores; assay: Topical treatment and prophylactic use in human subjects with recurrent cold sores; format: in vivo
[7] = tested on: Herpes Simplex Virus Type 1 (HSV-1); conditions: contact time 48 ± 8 hours
[8] = 5,000 μM L-arginine alone, listed as L-arginine
[9] = 10,000 μM L-arginine alone, listed as L-arginine
[10] = tranexamic acid 0.5% (w/v), high virus inocula
[11] = tranexamic acid 0.5% (w/v), low virus inocula
[12] = tranexamic acid 0.5% (w/v), low virus inocula, listed as tranexamic acid
[13] = tranexamic acid 1.0% (w/v), high virus inocula
[14] = tranexamic acid 1.0% (w/v), high virus inocula, listed as tranexamic acid
[15] = tranexamic acid 1.0% (w/v), low virus inocula
[16] = tranexamic acid 1.0% (w/v), low virus inocula, listed as tranexamic acid
[17] = tranexamic acid 2.0% (w/v), high virus inocula
[18] = 2% (w/v) tranexamic acid alone, listed as tranexamic acid

N=C(N)NCCC[C@H](N)C(=O)O [L-Arginine, L-arginine]
Viral Promotion (%) [1, 8]: 54% | Output Viral Titer (Log10TCID50) ([1]; 10,000 μM L-arginine alone): 7.21 Log10TCID50 and 7.09 Log10TCID50 and 7.15 Log10TCID50 | Titer (Log10TCID50/mL) ([1]; 10,000 μM L-arginine alone): 7.21 ± 0.06 Log10TCID50/mL and 7.09 ± 0.09 Log10TCID50/mL and 7.15 ± 0.08 Log10TCID50/mL | Viral Promotion (%) ([1]; 10,000 μM L-arginine alone): 85% and 80% and 83% | Viral Promotion (%) [1, 9]: 85% | Log10 Titer Difference ([1]; 10,000 μM L-arginine alone): 0.82 Log10 and 0.70 Log10 and 0.76 Log10 | Viral Promotion (%) ([1]; 25,000 μM L-arginine alone): 85% and 74% and 65% | Viral Promotion (%) ([1]; 25,000 μM L-arginine alone, listed as L-arginine): 85% | Viral Promotion (%) ([2]; 5,000 μM L-arginine alone): 44% and 76% | Viral Reduction (%) ([2]; 5,000 μM L-arginine alone): 32% | Viral Promotion (%) [2, 8]: 76% | Viral Promotion (%) [2, 9]: 76% | Viral Promotion (%) ([2]; 25,000 μM L-arginine alone): 3% | Viral Reduction (%) ([2]; 25,000 μM L-arginine alone): 66% | Log10 titer reduction (peak of replicates) ([3]; 0.5 mM L-arginine alone, vs input virus control average): 0.28 Log10 | Log10 titer reduction (peak of replicates) ([3]; 2 mM L-arginine alone, vs input virus control average): 0.04 Log10 | Log10 Titer Reduction ([3]; 5 mM L-arginine alone, vs input virus control average): no Log10 titer reduction | Log10 Titer Reduction ([3]; 5 mM L-arginine, HSV-1, contact time 48 ± 2 hours, input viral titer 8.50, 3 replicates): No reduction

N[C@@H](Cc1c[nH]cn1)C(=O)O [L-Histidine, L-histidine]
Titer (Log10TCID50/mL) ([3]; 0.5 mM L-histidine alone, contact time 48 ± 2 hours): 8.46 ± 0.09 Log10TCID50/mL and 8.76 ± 0.06 Log10TCID50/mL and 8.76 ± 0.10 Log10TCID50/mL | Log10 titer reduction (peak of replicates) ([3]; 0.5 mM L-histidine alone, vs input virus control average): 0.04 Log10 | Output Viral Titer (Log10TCID50) ([3]; 0.5 mM L-histidine, HSV-1, contact time 48 ± 2 hours, 3 replicates): 8.46 Log10TCID50 and 8.76 Log10TCID50 (2×) | Titer (Log10TCID50/mL) ([3]; 1 mM L-histidine alone, contact time 48 ± 2 hours): 8.70 ± 0.11 Log10TCID50/mL and 8.40 ± 0.11 Log10TCID50/mL | Log10 titer reduction (peak of replicates) ([3]; 1 mM L-histidine alone, vs input virus control average): 0.10 Log10 | Output Viral Titer (Log10TCID50) ([3]; 1 mM L-histidine, HSV-1, contact time 48 ± 2 hours, 3 replicates): 8.76 Log10TCID50 and 8.70 Log10TCID50 and 8.40 Log10TCID50 | Titer (Log10TCID50/mL) ([3]; 5 mM L-histidine alone, contact time 48 ± 2 hours): 8.52 ± 0.10 Log10TCID50/mL and 8.82 ± 0.08 Log10TCID50/mL and 8.64 ± 0.06 Log10TCID50/mL | Log10 Titer Reduction ([3]; 5 mM L-histidine alone, vs input virus control average): no Log10 titer reduction | Output Viral Titer (Log10TCID50) ([3]; 5 mM L-histidine, HSV-1, contact time 48 ± 2 hours, 3 replicates): 8.52 Log10TCID50 and 8.82 Log10TCID50 and 8.64 Log10TCID50 | Log10 Titer Reduction ([3]; 5 mM L-histidine, HSV-1, contact time 48 ± 2 hours, input viral titer 8.50, 3 replicates): No reduction | Titer (Log10TCID50/mL) ([3]; 10 mM L-histidine alone, contact time 48 ± 2 hours): 8.70 ± 0.00 Log10TCID50/mL and 8.64 ± 0.06 Log10TCID50/mL | Log10 Titer Reduction ([3]; 10 mM L-histidine alone, vs input virus control average): no Log10 titer reduction | Output Viral Titer (Log10TCID50) ([3]; 10 mM L-histidine, HSV-1, contact time 48 ± 2 hours, 3 replicates): 8.70 Log10TCID50 and 8.64 Log10TCID50 (2×) | Log10 Titer Reduction ([3]; 10 mM L-histidine, HSV-1, contact time 48 ± 2 hours, input viral titer 8.50, 3 replicates): No reduction | Titer (Log10TCID50/mL) ([3]; 25 mM L-histidine alone, contact time 48 ± 2 hours): 8.64 ± 0.10 Log10TCID50/mL and 8.52 ± 0.12 Log10TCID50/mL and 8.70 ± 0.00 Log10TCID50/mL

NC[C@H]1CC[C@H](C(=O)O)CC1 [Tranexamic Acid (TA)]
Output Viral Titer (Log10TCID50) ([3]; 2% (w/v) tranexamic acid, HSV-1, contact time 48 ± 2 hours, 3 replicates): 7.15 Log10TCID50 and 7.21 Log10TCID50 and 7.27 Log10TCID50 | Log10 Titer Reduction ([3]; 2% (w/v) tranexamic acid, HSV-1, contact time 48 ± 2 hours, input viral titer 8.50, 3 replicates): 1.35 Log10 and 1.29 Log10 and 1.23 Log10

NC[C@H]1CC[C@H](C(=O)O)CC1 [Tranexamic Acid, tranexamic acid]
maximum concentration that could be used without cytotoxicity [4]: 2 % (w/v) | Reduction (%) [5, 10]: 52.85% | Output Viral Titer (Log10TCID50) [5, 11]: 5.77 Log10TCID50 and 5.71 Log10TCID50 | Reduction (%) [5, 11]: 78.94% and 64.24% and 68.85% | Titer (Log10TCID50/mL) [5, 11]: 5.54 ± 0.09 Log10TCID50/mL and 5.77 ± 0.10 Log10TCID50/mL and 5.71 ± 0.08 Log10TCID50/mL | Reduction (%) [5, 12]: 78.94% | Output Viral Titer (Log10TCID50) [5, 13]: 7.62 Log10TCID50 and 7.44 Log10TCID50 and 7.38 Log10TCID50 | Reduction (%) [5, 13]: 37.85% and 58.94% and 64.24% | Titer (Log10TCID50/mL) [5, 13]: 7.62 ± 0.08 Log10TCID50/mL and 7.44 ± 0.11 Log10TCID50/mL and 7.38 ± 0.10 Log10TCID50/mL | Reduction (%) [5, 14]: 64.24% | Output Viral Titer (Log10TCID50) [5, 15]: 5.60 Log10TCID50 and 5.83 Log10TCID50 and 5.89 Log10TCID50 | Reduction (%) [5, 15]: 75.82% and 58.94% and 52.85% | Titer (Log10TCID50/mL) [5, 15]: 5.89 ± 0.10 Log10TCID50/mL and 5.60 ± 0.09 Log10TCID50/mL and 5.83 ± 0.08 Log10TCID50/mL | Reduction (%) [5, 16]: 75.82% | Reduction (%) [5, 17]: 99.98% and 99.85% | Output Viral Titer (Log10TCID50) ([1]; 2% (w/v) tranexamic acid alone): 5.30 Log10TCID50 and 5.12 Log10TCID50 | Titer (Log10TCID50/mL) ([1]; 2% (w/v) tranexamic acid alone): 5.24 ± 0.08 Log10TCID50/mL and 5.30 ± 0.10 Log10TCID50/mL and 5.12 ± 0.10 Log10TCID50/mL | Viral Reduction (%) ([1]; 2% (w/v) tranexamic acid alone): 93% and 92% and 95% | Viral Reduction (%) [1, 18]: 95% | Log10 Titer Difference ([1]; 2% (w/v) tranexamic acid alone): −1.15 Log10 and −1.09 Log10 and −1.27 Log10 | outcome of cold sore outbreak ([6]; fourth subject, 10% (w/v) tranexamic acid topically a single time at onset): the following morning the blister was gone and the outbreak had ceased | cold sore outbreaks during the year ([6]; one subject, 3 or 10% (w/v) tranexamic acid applied to face daily for approximately one year, usual experience 3 to 5 outbreaks): one | time until cold sore had healed to only a small red spot ([6]; person, approximately 0.25 mL aqueous solution of 5% (w/v) tranexamic acid by swab, 5 times over 36 hours): ≤ 36 h | time until symptoms of the outbreak resolved ([6]; three human subjects, 3% (w/v) tranexamic acid topically several times a day from beginning of outbreak, usual duration about 2 weeks): ≤ 48 h | Viral Reduction (%) ([2]; 2% (w/v) tranexamic acid alone): 99.6% and 99.7% and 99.3% | Viral Reduction (%) [2, 18]: 99.7% | Titer (Log10TCID50/mL) [3]: 7.15 ± 0.08 Log10TCID50/mL and 7.21 ± 0.06 Log10TCID50/mL and 7.27 ± 0.00 Log10TCID50/mL | Log10 titer reduction (peak of replicates) ([3]; 2% (w/v) tranexamic acid alone, vs input virus control average): 1.29 Log10 | Output Viral Titer (Log10TCID50) [7, 10]: 6.19 Log10TCID50 and 6.43 Log10TCID50 and 6.37 Log10TCID50 | Reduction (%) [7, 10]: 45.9% | Titer (Log10TCID50/mL) [7, 10]: 6.19 ± 0.08 Log10TCID50/mL and 6.43 ± 0.13 Log10TCID50/mL and 6.37 ± 0.11 Log10TCID50/mL | Output Viral Titer (Log10TCID50) [7, 11]: 5.24 Log10TCID50 and 5.54 Log10TCID50 | Reduction (%) [7, 11]: 62.9% and 90.5% and 81.0% | Reduction (%) [7, 12]: 90.5% | Output Viral Titer (Log10TCID50) [7, 13]: 6.43 Log10TCID50 and 6.61 Log10TCID50 | Titer (Log10TCID50/mL) [7, 13]: 6.43 ± 0.12 Log10TCID50/mL and 6.61 ± 0.11 Log10TCID50/mL and 6.43 ± 0.13 Log10TCID50/mL | Reduction (%) [7, 14]: 5.9% | Output Viral Titer (Log10TCID50) [7, 15]: 4.34 Log10TCID50 | Reduction (%) [7, 15]: 97.9% and 98.8% and 75.5% | Reduction (%) [7, 16]: 98.8% | Output Viral Titer (Log10TCID50) [7, 17]: 5.71 Log10TCID50 and 5.42 Log10TCID50 | Reduction (%) [7, 17]: 82.1% and 90.8% | Titer (Log10TCID50/mL) [7, 17]: 5.71 ± 0.12 Log10TCID50/mL and 5.42 ± 0.06 Log10TCID50/mL | Reduction (%) ([7]; tranexamic acid 2.0% (w/v), high virus inocula, listed as tranexamic acid): 90.8%
